From patent publication US8466164B2

Tests used:
SaOS-2 cells = assay: MTT cell viability assay on SaOS-2; settings: SaOS-2, MTT, control = 100%, mean ± SD; for CV (%) after 24 h (cellular viability with respect to control): 24 h treatment; for CV (%) after 48 h (cellular viability with respect to control): 48 h treatment, 25 μM
recombinant human Src = recombinant human Src (Homo sapiens, UniProt P12931); assay: cell-free Src enzymatic assay; format: biochemical; settings: calculated from ID50; triplicate, mean values; read-out: Ki toward recombinant human Src
recombinant human Src, sequence (P12931 whole entry): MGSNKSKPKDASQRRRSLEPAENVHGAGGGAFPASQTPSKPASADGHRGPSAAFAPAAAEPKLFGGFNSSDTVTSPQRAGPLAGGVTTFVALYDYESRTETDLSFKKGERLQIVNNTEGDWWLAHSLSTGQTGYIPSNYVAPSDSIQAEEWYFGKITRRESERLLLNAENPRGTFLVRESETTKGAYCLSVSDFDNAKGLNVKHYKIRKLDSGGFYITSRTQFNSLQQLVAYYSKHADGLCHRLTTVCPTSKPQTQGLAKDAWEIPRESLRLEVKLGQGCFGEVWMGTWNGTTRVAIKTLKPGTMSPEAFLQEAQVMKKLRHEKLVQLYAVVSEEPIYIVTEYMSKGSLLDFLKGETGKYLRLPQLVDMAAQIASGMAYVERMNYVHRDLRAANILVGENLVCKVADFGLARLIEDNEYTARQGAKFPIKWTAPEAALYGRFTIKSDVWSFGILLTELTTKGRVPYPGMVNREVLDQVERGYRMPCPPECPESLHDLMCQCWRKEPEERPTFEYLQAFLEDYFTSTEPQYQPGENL

CSc1nc(NCCc2ccccc2)c2cnn(CC(Cl)c3ccc(Cl)cc3)c2n1 (centres unmarked) [SI-71]
melting point: 127 to 129 °C | CV (%) after 24 h (cellular viability with respect to control) (SaOS-2 cells): 99.9 ± 0.9% | CV (%) after 48 h (cellular viability with respect to control) (SaOS-2 cells): 89.4 ± 2.3%

CSc1nc(Nc2ccccc2)c2cnn(CC(Cl)c3ccccc3)c2n1 (centres unmarked) [SI-118]
CV (%) after 24 h (cellular viability with respect to control) (SaOS-2 cells): 100.1 ± 1.2% | CV (%) after 48 h (cellular viability with respect to control) (SaOS-2 cells): 94.4 ± 0.7%

CSc1nc(NCc2ccc(Cl)cc2)c2cnn(CC(Cl)c3ccccc3)c2n1 (centres unmarked) [SI-87]
melting point: 126 to 127 °C | CV (%) after 24 h (cellular viability with respect to control) (SaOS-2 cells): 113.4 ± 1.5% | CV (%) after 48 h (cellular viability with respect to control) (SaOS-2 cells): 54.9 ± 2.4%

Clc1cccc(Nc2nc(SC3CCCCC3)nc3c2cnn3CC(Cl)c2ccccc2)c1 (centres unmarked) [SI-153]
Ki (recombinant human Src): 700 nM

CCCSc1nc(Nc2cccc(Cl)c2)c2cnn(CC(Cl)c3ccccc3)c2n1 (centres unmarked) [SI-101]
CV (%) after 24 h (cellular viability with respect to control) (SaOS-2 cells): 77.8 ± 3.0% | CV (%) after 48 h (cellular viability with respect to control) (SaOS-2 cells): 6.4 ± 1.9%

COc1ccc(CCNc2nc(SC)nc3c2cnn3CC(Cl)c2ccccc2)cc1 (centres unmarked) [SI-61]
melting point: 60 to 61 °C | CV (%) after 24 h (cellular viability with respect to control) (SaOS-2 cells): 101.0 ± 3.0% | CV (%) after 48 h (cellular viability with respect to control) (SaOS-2 cells): 49.8 ± 2.1%

CSc1nc(Nc2cccc(Br)c2)c2cnn(CC(Cl)c3ccc(F)cc3)c2n1 (centres unmarked) [SI-128]
CV (%) after 24 h (cellular viability with respect to control) (SaOS-2 cells): 63.1 ± 1.1% | CV (%) after 48 h (cellular viability with respect to control) (SaOS-2 cells): 55.4 ± 2.0%

CSc1nc(NCc2ccccc2F)c2cnn(CC(Cl)c3ccccc3)c2n1 (centres unmarked) [SI-86]
CV (%) after 24 h (cellular viability with respect to control) (SaOS-2 cells): 104.1 ± 1.3% | CV (%) after 48 h (cellular viability with respect to control) (SaOS-2 cells): 99.7 ± 0.4%

CSc1nc(NCCc2ccc(Cl)cc2)c2cnn(CC(Cl)c3ccccc3)c2n1 (centres unmarked) [SI-57]
CV (%) after 24 h (cellular viability with respect to control) (SaOS-2 cells): 85.2 ± 0.7% | CV (%) after 48 h (cellular viability with respect to control) (SaOS-2 cells): 75.4 ± 1.3%

CSc1nc(NCc2ccccc2)c2cnn(CC(Cl)c3ccc(Cl)cc3)c2n1 (centres unmarked) [SI-70]
melting point: 130 to 131 °C | CV (%) after 24 h (cellular viability with respect to control) (SaOS-2 cells): 52.2 ± 2.4% | CV (%) after 48 h (cellular viability with respect to control) (SaOS-2 cells): 24.4 ± 2.5%

CSc1nc(NCCc2cccc(F)c2)c2cnn(CC(Cl)c3ccccc3)c2n1 (centres unmarked) [SI-56]
CV (%) after 24 h (cellular viability with respect to control) (SaOS-2 cells): 101.1 ± 1.1% | CV (%) after 48 h (cellular viability with respect to control) (SaOS-2 cells): 100.8 ± 2.1%

CSc1nc(NCCc2ccc(C)cc2)c2cnn(CC(Cl)c3ccccc3)c2n1 (centres unmarked) [SI-60]
melting point: 99 to 100 °C | CV (%) after 24 h (cellular viability with respect to control) (SaOS-2 cells): 101.9 ± 1.9% | CV (%) after 48 h (cellular viability with respect to control) (SaOS-2 cells): 96.3 ± 1.1%

CCSc1nc(NCCc2ccccc2)c2cnn(CC(Cl)c3ccccc3)c2n1 (centres unmarked) [S1-72]
melting point: 99 to 100 °C | CV (%) after 24 h (cellular viability with respect to control) (SaOS-2 cells): 107.3 ± 3.5% | CV (%) after 48 h (cellular viability with respect to control) (SaOS-2 cells): 22.2 ± 1.3%

CSc1nc(NCc2ccc(F)cc2)c2cnn(CC(Cl)c3ccccc3)c2n1 (centres unmarked) [SI-84]
melting point: 136 to 137 °C | CV (%) after 24 h (cellular viability with respect to control) (SaOS-2 cells): 102.1 ± 1.4% | CV (%) after 48 h (cellular viability with respect to control) (SaOS-2 cells): 99.2 ± 1.0%

CSc1nc(Nc2cccc(Br)c2)c2cnn(CC(Cl)c3ccccc3)c2n1 (centres unmarked) [SI-91]
CV (%) after 24 h (cellular viability with respect to control) (SaOS-2 cells): 100.1 ± 1.1% | CV (%) after 48 h (cellular viability with respect to control) (SaOS-2 cells): 84.7 ± 0.3% | Ki (recombinant human Src): 1800 nM

CSc1nc(NCc2ccccc2Cl)c2cnn(CC(Cl)c3ccccc3)c2n1 (centres unmarked) [SI-88]
melting point: 158 to 159 °C | CV (%) after 24 h (cellular viability with respect to control) (SaOS-2 cells): 101.7 ± 0.9% | CV (%) after 48 h (cellular viability with respect to control) (SaOS-2 cells): 102.1 ± 1.2%

CSc1nc(NCc2cccc(F)c2)c2cnn(CC(Cl)c3ccccc3)c2n1 (centres unmarked) [SI-85]
melting point: 113 to 114 °C | CV (%) after 24 h (cellular viability with respect to control) (SaOS-2 cells): 106.2 ± 3.0% | CV (%) after 48 h (cellular viability with respect to control) (SaOS-2 cells): 71.3 ± 2.1%

CSc1nc(NCCc2ccccc2Cl)c2cnn(CC(Cl)c3ccccc3)c2n1 (centres unmarked) [SI-59]
melting point: 99 to 100 °C | CV (%) after 24 h (cellular viability with respect to control) (SaOS-2 cells): 102.9 ± 1.3% | CV (%) after 48 h (cellular viability with respect to control) (SaOS-2 cells): 100.5 ± 0.5%

CCSc1nc(Nc2cccc(Cl)c2)c2cnn(CC(Cl)c3ccccc3)c2n1 (centres unmarked) [SI-96]
CV (%) after 24 h (cellular viability with respect to control) (SaOS-2 cells): 76.5 ± 1.9% | CV (%) after 48 h (cellular viability with respect to control) (SaOS-2 cells): 44.3 ± 1.8% | Ki (recombinant human Src): 500 nM

CSc1nc(Nc2cccc(F)c2)c2cnn(CC(Cl)c3ccccc3)c2n1 (centres unmarked) [SI-90]
CV (%) after 24 h (cellular viability with respect to control) (SaOS-2 cells): 94.8 ± 2.7% | CV (%) after 48 h (cellular viability with respect to control) (SaOS-2 cells): 84.3 ± 1.5%

CSc1nc(NCCc2cccc(Cl)c2)c2cnn(CC(Cl)c3ccccc3)c2n1 (centres unmarked) [SI-58]
melting point: 122 to 123 °C | CV (%) after 24 h (cellular viability with respect to control) (SaOS-2 cells): 80.6 ± 0.7% | CV (%) after 48 h (cellular viability with respect to control) (SaOS-2 cells): 39.3 ± 2.0%

CSc1nc(NCc2ccccc2)c2cnn(CC(Cl)c3ccc(F)cc3)c2n1 (centres unmarked) [SI-65]
melting point: 152 to 153 °C | CV (%) after 24 h (cellular viability with respect to control) (SaOS-2 cells): 62.7 ± 0.7% | CV (%) after 48 h (cellular viability with respect to control) (SaOS-2 cells): 44.4 ± 2.5%

Clc1cccc(Nc2ncnc3c2cnn3CC(Cl)c2ccccc2)c1 (centres unmarked) [S-17]
CV (%) after 24 h (cellular viability with respect to control) (SaOS-2 cells): 104.1 ±0.4% | CV (%) after 48 h (cellular viability with respect to control) (SaOS-2 cells): 101.3 ± 1.5%
